Assay results as given in patent US4400384A, “5-o-Cyanobenzyl-4,5,6,7-tetrahydrothieno [3,2-c] pyridine methanesulfonate and other novel salts thereof” (Sanofi, S.A., priority 1980, dated 1983).
Structures can show the parent of a compound that is named as a salt.

Key:
[1] = system: blood-platelet aggregation (ADP); assay: Inhibitor action on blood-platelet aggregation, ADP method (ex vivo after gastric tube dosing); assay type: in vivo, female rats of the Wistar type; settings: 100 mg/Kg base equivalent at 48, 24 and 2 h before blood drawing
Protocol: (§1) The inhibitor action on blood-platelet aggregation of the salts of the present invention was determined by two different standard methods known to the art.
(§2) The first method, involving the use of ADP (adenosine diphosphate), is that of Ferrand J. C., Gaich C., Dumas, A.--EVALUATION DE L' EFFET ANTI-AGREGANT DE LA TICLOPIDINE PAR UNE TECHNIQUE SUR SANG TOTAL. COMM. SOCIETE DE BIOLOGIE DE TOULOUSE (TOULOUSE Feb. 9, 1978), RESUME IN: REV MED TOULOUSE, 1978, 14, (SUPPL. 5) 680, referred to hereinafter as the ADP method.
(§3) Groups of 10 female rats of the Wistar type were each dosed with one of the base or one of the salts of the invention and with the corresponding maleate salt of Amselem U.S. Pat. No. 4,097,482, at periods of 48 hours, 24 hours and 2 hours prior to drawing blood for testing by the ADP and collagen techniques referred to above. The active medicaments were administered by means of a gastric tube in the form of a 5% aqueous solution of gum arabic. A dosage level of 100 mg/Kg was used for the base, and for the salts an amount was used sufficient to provide the equivalent amount of the base portion of the salt.

[2] = system: blood-platelet aggregation (collagen); assay: Inhibitor action on blood-platelet aggregation, collagen method (ex vivo after gastric tube dosing); assay type: in vivo, female rats of the Wistar type; settings: 100 mg/Kg base equivalent at 48, 24 and 2 h before blood drawing
Protocol: as §1
(§4) The second method is that described in Ferrand J. C., Lale A.--NUMERATION ET AGREGATION PLAQUETTAIRE A L AIDE DE L AUTOCOUNTER. APPLICATION A L ETUDE DE LA TICLOPIDINE. COMM. SYMPOSIUM TECHNICON INDUSTRIE (PARIS, June 15, 1978); Ferrand J. C., Lale A.--EVALUATION EX-VIVO DE L AGREGATION PLAQUETTAIRE PAR UNE TECHNIQUE AUTOMATIQUE SUR SANG TOTAL COMM. SOCIETE FRANCAISE DE BIOLOGIE CLINIQUE (PARIS Sept. 28, 1979); and J. C. Ferrand, A. Lale, D. Aubert and G. Barthelemy--APPRECIATION QUANTITATIVE DE L' ACTIVITE ANTI-AGREGANTE DE LA TICLOPIDINE PAR VOIE AUTOMATIQUE. COMM. REUNION DE L' ASOCIATION FRANCAISE DE PHARMACOLOGISTES DIJON (May 2-3, 1980), and is referred to hereafter as the collagen method.
as §3

[3] = system: blood-platelet aggregation; assay: Inhibition of blood-platelet aggregation (general statement); assay type: in vivo; settings: result in words
Protocol: as §1, §2
as §4, with “method. […]” for “method.”

[4] = prior art maleate; cited from earlier work
[5] = prior art maleate; cited from earlier work; remark: listed apart in the source

Compound	BLOOD PLATELET AGGREGATION, ADP, 1 mn 30 s ([1]; controls 0.29, 100 mg/kg)	BLOOD PLATELET AGGREGATION, ADP, 3 mn ([1]; controls 0.40, 100 mg/kg)	BLOOD PLATELET AGGREGATION, COLLAGEN ([2]; controls 2.53, 100 mg/kg)	BLOOD PLATELET AGGREGATION, ADP, 1 mn 30 s ([1]; controls 0.29)	BLOOD PLATELET AGGREGATION, ADP, 3 mn ([1]; controls 0.40)	BLOOD PLATELET AGGREGATION, COLLAGEN ([2]; controls 2.53)	inhibitor action against blood-platelet aggregation [3]	anti-inflammatory activity (prior art salt) [4]	vasodilator activity (prior art salt) [5]
N#Cc1ccccc1CN1CCc2sccc2C1 [Hemitartrate, 5-o-cyanobenzyl-4,5,6,7-tetrahydrothieno [3,2-c] pyridine]	0.74	0.84	0.74	–	–	–	–	–	–
N#Cc1ccccc1CN1CCc2sccc2C1 [Hemifumarate, 5-o-cyanobenzyl-4,5,6,7-tetrahydrothieno [3,2-c] pyridine]	0.76	0.82	0.42	–	–	–	–	–	–
N#Cc1ccccc1CN1CCc2sccc2C1 [Hydrochloride, 5-o-cyanobenzyl-4,5,6,7-tetrahydrothieno [3,2-c] pyridine]	0.82	0.82	0.84	–	–	–	–	–	–
N#Cc1ccccc1CN1CCc2sccc2C1.O=C(O)/C=C\C(=O)O [Maleate, 5-o-cyanobenzyl-4,5,6,7-tetrahydrothieno [3,2-c] pyridine maleate, reference compound]	–	–	–	0.70	0.81	0.80	substantial activity in the inhibition of blood-platelet aggregation	not free of anti-inflammatory	not free of anti-inflammatory or vasodilator activity
N#Cc1ccccc1CN1CCc2sccc2C1 [Nitrate, 5-o-cyanobenzyl-4,5,6,7-tetrahydrothieno [3,2-c] pyridine]	0.84	0.83	0.91	–	–	–	–	–	–
